One data set deals with warts. Briefly: human wart trial, subcutaneous injection into the wart. The data set is classed as in vivo. On the procedure:
A trial was conducted to observe the anti-proliferative action of Sialokinins, SEQ. ID. NO. 1 and NO. 2, in the treatment of warts in a human application. This trial, conducted by a dermatologist, involved four volunteer human subjects who received two (2) subcutaneous injections of Sialokinin I and Sialokinin II into the wart. Injections of 100 μl of 5 μM were administered subcutaneously to each volunteer.
The warts chosen for this trial had been diagnosed as stable and thus any observable change in the size of the wart to the injections would be significant. […] Of the 3 patients, reductions in size of 19%, 79%, and 31% were observed. When no further treatments were administered, no further reductions were observed.

In the next data set the test system is guinea pig ileum. The conditions noted are these: read-out: K0.5; cited from earlier work.
For data set [1], the system named is Lewis lung carcinoma cells. Kind of data set: in vivo tumorigenicity model, Lewis lung carcinoma in immuno-compromised (nu/nu) mice, intravenous injection. On the procedure:
To test the efficacy of different concentrations of the Sialokinin peptides, test articles, SEQ. ID. NO. 1 and NO. 2, in an in vivo tumorigenicity model, a study was conducted with Lewis lung carcinoma in immuno-compromised (nu/nu) mice. Lewis lung carcinoma cells were cultured in Dulbecco's Modified Eagles Medium (DMEM), supplemented with 4 mM L-glutamine, 0.1 mM non-essential amino acids, 10% heat inactivated fetal bovine serum (FBS), […] Gentamicin and 250 μg/ml Fungizone. Cells were cultured in 5% CO2 and 95% air at 37° C. Exponentially growing cells were harvested and washed twice in phosphate buffered saline (PBS) to remove any traces of trypsin or serum. The washed cells were suspended in Hanks Balanced Salt Solution (HBSS) for injection.
Athymic nude mice were injected subcutaneously in the right lateral thorax with 10^4 Lewis lung carcinoma cells. A total of 38 mice were injected, with 33 tumor-bearing mice used in the study. When tumors reached a target window size of 100-200 mg, 33 tumor-bearing mice were randomly selected and sorted into one of three groups. Group 1 contained mice that received the test article carrier by an IV injection as a negative control. […]
Tumor measurements were recorded three times a week using calipers. […] Clinical observations on each mouse were done twice weekly for signs of toxicity and morbidity and any abnormal findings were recorded. […]

Another data set relates to spleen cell. The conditions noted are these: 25 μg/ml of salivary gland extract, cited from earlier work.
The next data set concerns ASM cells. The conditions noted are these: cited from earlier work; for proliferative response in ASM cells: dose range of 10^−12 to 10^−6M.
Data set [2] has as its system Lewis lung carcinoma cells. Kind of data set: in vivo tumorigenicity model, Lewis lung carcinoma in C57Bl/6 mice, intra-tumor injection. The conditions noted are these: for tumor growth inhibition: Cisplatin group. On the procedure: The inhibitory action of Sialokinin I and II, SEQ. ID. NO. 1 and NO. 2, against tumor tissue proliferation (Lewis lung carcinoma) was investigated. To test the efficacy of three different concentrations of peptide test articles in an in vivo tumorigenicity model using Lewis lung carcinoma cells.
Lewis lung carcinoma cells were obtained from ATCC and cultured in monolayers in DMEM supplemented with 10% heat-inactivated FBS, 4 mM L-glutamine, 100 μg/ml streptomycin and 100 units/ml penicillin for two passage cycles at 37° C. in 95% air and 5% CO2. Cells were harvested from subconfluent cultures by 60-second exposure to trypsin/EDTA, washed in serum free medium and brought to the correct concentration of cells in PBS.
On day 0, 35 female C57Bl/6 mice 6-8 weeks of age were shaved on the right lateral thorax and injected subcutaneously with 1.0×10^6 Lewis lung carcinoma cells. A total of 35 mice were injected so that 25 tumor-bearing mice with the correct tumor size could be used for the study. Tumors were allowed to develop for four days post cell injection at which time biweekly tumor measurements (L×W), in millimeters, were recorded for 3 weeks. […] The data are presented as mean tumor mass plotted over time.
When tumors reached a size of 100-200 mg, 25 mice were selected and randomly sorted into five groups. The five groups of Lewis lung tumor bearing mice were used to test three different test article concentrations.
The first group contained animals injected with the test article carrier as a control group. The control animals were injected with 50 μl intra-tumor injections of sterile saline and 1% bovine serum albumin (BSA), three times per week for a total of 5 doses. The control group contained mice that received the vehicle as a negative control.
The second group contained animals treated with 6 mg/kg of Cisplatin (Platinol; Bristol-Myers Squibb Co.) as a positive control administered according to manufacture's specifications by intravenous tail vein injection, every fourth day for a total of 3 doses. The Cisplatin group contained mice that received Cisplatin as a positive control.
The third group contained animals that received 5 μM of test article dissolved in sterile saline and 1% bovine serum albumin (BSA) injected intra-tumor with 50 μl injections, three times per week for a total of 5 doses.
The fourth group contained animals that received 10 μM of test article dissolved in sterile saline and 1% bovine serum albumin (BSA) injected intra-tumor with 50 μl injections, three times per week for a total of 5 doses.
The fifth group contained animals that received 100 μM of test article dissolved in sterile saline and 1% bovine serum albumin (BSA) injected intra-tumor with 50 μl injections, three times per week for a total of 5 doses.
Injections began on the day that animals were randomly sorted into one of five groups. Animals in the control, 5 μM, 10 μM, and 100 μM groups were dosed every other workday with an intra-tumor subcutaneous injection for a total of 5 doses. Tumor size was measured and recorded twice weekly using calipers. Mice were examined twice weekly for morbidity, and any abnormal findings were recorded. When tumors reached a mean target size of 1000 mg in control mice the animals were euthanized and two mice from each group were randomly selected and sent to necropsy for tumor and tissue collection. Mice were photographed before harvesting tumors and major organs (heart, lung, liver, kidney, spleen, GI tract and brain). No mice died while on study.

Setting [3] is: two 100 μl injections of 5 μM into the wart.

The source of these data is patent US8357653B2, “System and method for inhibiting cellular proliferation with tachykinins” (priority 2000, dated 2013).

Where “and” joins values, the source holds several entries; their conditions need not be identical. Identical values can stand only once. Like-named read-outs stand apart in the source and are kept apart here. Ends that are not written are not given here. Peptide text beside a SMILES is read from it.

As for “Asn^1-Thr^2-Gly^3-Asp^4-Lys^5-Phe^6-Tyr^7-Gly^8-Leu^9-Met^10-NH2 (NTGDKFYGLM-NH2; listed as Aedes aegypti) [SK1]”, the side effects result with warts (first clinical exposure, human) was “no side effects were detected”. The systemic symptoms entry in the data set with warts (two 100 μl injections of 5 μM) is given as “no systemic symptoms were detected”. Besides, the “toxicity in trial subjects” value in the data set on warts (two 100 μl injections of 5 μM) was “no measured or observed toxicity”. Moreover, the “patients showing a reduction in wart size” value in the data set on warts (setting [3]) was 3 of 4. Moreover, the “reduction in wart size (individual patients)” value with warts (setting [3]) was 19% and 79% and 31%. Further, the EC50 with guinea pig ileum was 6.58 nM. For the same compound, the “necropsy, toxicity or tissue necrosis” value in data set [1] (200 μl intravenous injection of 5 μM and 10 μM) was “no detectable toxicity or tissue necrosis”. Moreover, the “weight loss in study animals” value in data set [1] (intravenous 5 μM and 10 μM, during the study period) is “No weight loss”. Further, the “suppression of spleen cell proliferation” value in the data set on spleen cell (stimulated with IL-2, antigen activated cells) is reported as 39%; in the data set with spleen cell (stimulated with IL-2, naïve cells), 66%; in the data set with spleen cell (stimulated with IL-4, antigen activated cells) it was 27%; with spleen cell (stimulated with IL-4, naïve cells), 39%.
In the case of “His^1-Lys^2-Thr^3-Asp^4-Ser^5-Phe^6-Val^7-Gly^8-Leu^9-Met^10-NH2 (HKTDSFVGLM-NH2) [NKA]”, in the data set with ASM cells, the “proliferative response in ASM cells” value is given as “Neither NKA nor NKB induced significant proliferative responses”. Also, in the data set on ASM cells (highest administered concentration of 10^−4M), the ASM cell count entry is “relatively modest increase in ASM cell count”.
In the case of “Arg^1-Pro^2-Lys^3-Pro^4-Gln^5-Gln^6-Phe^7-Phe^8-Gly^9-Leu^10-Met^11-NH2 [Substance P]”, the EC50 in the data set with guinea pig ileum is 4.94 nM. Further, the “concentration eliciting the maximum proliferative response” value in the data set with ASM cells (ASM cells) was 10^−4 M. In addition, the ASM cell number result in the data set with ASM cells (concentration range of 10^−14 to 10^−4M) is listed as “dose-dependent increases in ASM cell number”.
Take `CSCC[C@H](NC(=O)[C@H](CC(C)C)NC(=O)CNC(=O)[C@H](Cc1ccc(O)cc1)NC(=O)[C@H](Cc1ccccc1)NC(=O)[C@H](CCCCN)NC(=O)[C@H](CC(=O)O)NC(=O)CNC(=O)[C@@H](NC(=O)[C@@H](N)CC(=O)O)[C@@H](C)O)C(N)=O` [Sialokinin II, Asp^1-Thr^2-Gly^3-Asp^4-Lys^5-Phe^6-Tyr^7-Gly^8-Leu^9-Met^10-NH2] (H-DTGDKFYGLM-NH2): in the data set on guinea pig ileum, the EC50 was 5.07 nM.
For “Asp^1-Met^2-His^3-Asp^4-Phe^5-Phe^6-Val^7-Gly^8-Leu^9-Met^10-NH2 (DMHDFFVGLM-NH2) [NKB]”, in the data set with ASM cells, the “proliferative response in ASM cells” value was “Neither NKA nor NKB induced significant proliferative responses”.
As for `N.N.[Cl][Pt][Cl]` [Cisplatin], the body weight change entry in data set [2] (6 mg/kg intravenous) was “significant weight loss”. Moreover, the “growth compared to control tumor growth” value in data set [2] (6 mg/kg intravenous, day 7) came out at 58%; in data set [2] (6 mg/kg intravenous, day 10) it was 93%; in data set [2] (6 mg/kg intravenous, day 15) it was 73%. In addition, in data set [2] (6 mg/kg intravenous, p<0.05), the “tumor size compared to control group mice” value is “significantly smaller tumors”. Moreover, the tumor growth inhibition in data set [2] (day 7) is 42%; in data set [2] (day 10) it was 7%; in data set [2] (day 15), 27%.
